The assay deals with CSM14.1 cells, thapsigargin-induced CHOP Western blot. Briefly: inhibitors of CHOP induction, mechanism study for ER stress cell death inhibitors, thapsigargin stimulus, CSM14.1 cells, Western blot (AID 1357).

Active and inactive are the calls of the source.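 Rule for the calls: active = no band for the stress protein CHOP on the immunoblot after the stress trigger, its induction blocked; inactive = CHOP band still seen after the stress trigger.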

For `COc1ccc(C2CC(=O)C3=C(C2)Nc2ccccc2NC3c2cccc(C(F)(F)F)c2)cc1OC` (stereo unspecified), the outcome was inactive.
Take `COc1ccc(C2CC(=O)C3=C(C2)Nc2ccccc2NC3c2cccc(Br)c2)cc1OC` (stereo unspecified): the outcome was inactive.
For `COc1ccc(C2CC(=O)C3=C(C2)Nc2ccccc2NC3c2cc(C)ccc2C)cc1` (stereo unspecified), the result was inactive.
With `CC1(C)CC(=O)C2=C(C1)Nc1ccccc1NC2c1ccc(-c2ccccc2)cc1` (stereo unspecified), the outcome was inactive.
The value for `CCCOc1ccc(C2Nc3ccccc3NC3=C2C(=O)CC(c2ccc(OC)c(OC)c2)C3)cc1` (stereo unspecified) was “inactive”; that for `CCOc1cc(C2Nc3ccccc3NC3=C2C(=O)CC(c2ccc(OC)cc2)C3)cc(Cl)c1O` (stereo unspecified) was “inactive”; that for `CSc1ccc(C2Nc3ccccc3NC3=C2C(=O)CC(c2ccccc2)C3)cc1` (stereo unspecified) was “inactive”.
Turning to `CCOc1cccc(C2Nc3ccccc3NC3=C2C(=O)CC(c2ccc(OC)cc2)C3)c1` (stereo unspecified), the result was inactive.
For the compound `O=C1CC(c2ccccc2)CC2=C1C(c1c(F)cccc1Cl)Nc1ccccc1N2` (stereo unspecified), the outcome was inactive.
Turning to `COc1ccc(C2CC(=O)C3=C(C2)Nc2ccccc2NC3c2cccc(Oc3ccccc3)c2)cc1OC` (stereo unspecified), the outcome was inactive.
As for `COc1ccc(C2CC(=O)C3=C(C2)Nc2ccccc2NC3c2ccccc2C(F)(F)F)cc1OC` (stereo unspecified), the outcome was inactive.

The values are drawn from PubChem BioAssay AID1357 (Sanford-Burnham Center for Chemical Genomics, 2008).
